Measured values taken from ChEMBL document CHEMBL3507680, “University of Dundee, Gates Library screen for HepG2 cell viability”.

Assay: Human HepG2 cell viability assay in 384 well format
Type: toxicity, cell-based
Set-up: dose 125 nL, time 70.5 hour; concentration not given beside the values
Conditions: HepG2 cells, read-out: Inhibition

| SMILES | cytotoxicity at 70.5 h |
| --- | --- |
| CC(C)c1ccc2c(c1)C1(CC(=O)Nc3[nH]ncc31)C(=O)N2C (stereo not given) | -19.6% |
| c1ccc(CNc2nc(N3CCOCC3)nc3nccnc23)cc1 | -12.1% |
| Cn1ccnc1SC1CCc2ccccc2NC1=O (stereo not given) | -23.5% |
| CCOC(=O)c1nc(CC(=O)Nc2ccccc2)no1 | -17.6% |
| COCC(=O)N(Cc1ccc2[nH]ccc2c1)C1CC1 | -25.2% |
| Cc1nc2oc(C(=O)N3CCCC3)c(N)c2c2c1CCCC2 | -16.9% |
| O=C(Cc1cnc(-n2cccc2)s1)NCCCO | -25% |
| CCOC(=O)c1nc(COc2c(C)occc2=O)no1 | -20.5% |
| Cc1cc(C)n(Cc2ccc(-c3noc(C(=O)NCCCO)n3)cc2)n1 | -21.4% |
| Cc1occc(=O)c1OCc1noc(C(=O)NCC2CC2)n1 | -16.6% |
| N#Cc1nc(COc2ccc3c(c2)OCO3)oc1NC1CC1 | -28.4% |
| C[C@@H](O)CNC(=O)c1nc(CC(=O)Nc2ccccc2)no1 | -19.3% |
| COC(=O)[C@H](CC(C)C)NC(=O)c1snnc1-c1ccc(OC)cc1 | 10.9% |
| Cc1nc(NC(=O)c2c(-n3cnnn3)sc3c2CCC3)sc1C | -5.79% |
| CC(=O)CSc1sc2c(O)cc(=O)[nH]c2c1C(N)=O | -12.7% |
| CN1C(=O)COc2ccc(C(=O)Cn3cnc4ccccc4c3=O)cc21 | -12% |
| COC(=O)c1cc2c(=O)n(C3CCCC3)ccc2nc1C | -15.4% |
| CC(C)C[C@H](NC(=O)NC1CCS(=O)(=O)C1)C(=O)NCc1cccnc1 (stereo not given in full) | -16% |
| CN1CCN(C(=O)c2cc3occc3n2Cc2ccccc2F)CC1 | -10.6% |
| Cc1cccc(NC(=O)C2(n3cnnn3)CCCCC2)n1 | -26.9% |
| COc1coc(C(=O)Nc2ccncc2)cc1=O | -12.7% |
| Cc1nc(C)c(CC(=O)NCc2ccc(F)cc2)s1 | -11.4% |

| SMILES | cytotoxicity at 70.5 h |
| --- | --- |
| COc1ccccc1NC(=O)Cn1c(=O)nc(N)c2cc(C)sc21 | -16.1% |
| O=C(c1cc(=O)c(OCc2ccccc2F)co1)N1CCCC1 | 1.91% |
| COC(=O)c1cc2c(=O)n(C3CC3)ccc2nc1C | 2.32% |
| CC(C)NC(=O)c1csc(NC2CC2)n1 | 0.174% |
| CCCSc1nn(CCN(C)C)c2nc3sc(C)c(CC)c3c(=O)n12 | 32.5% |
| CCCSc1nn(CCCN(C)C)c2nc3sc(C)c(CC)c3c(=O)n12 | 11.5% |
| COc1ccc2cnn(CC(=O)NCC3CCCO3)c(=O)c2c1OC (stereo not given) | -3.4% |
| CC(C)Nc1nc(C(=O)Nc2ccccn2)cs1 | -13.8% |
| O=C1CC(c2ccncc2)c2c(c(C(=O)O)cn2-c2ccccc2)N1 (stereo not given) | -8.17% |
| CCc1c(C)sc2c1c(N)nc(=O)n2CCN1CCOCC1 | 9.55% |
| Cc1n[nH]c2c1C(c1ccc3c(c1)OCCO3)SCC(=O)N2 (stereo not given) | -0.607% |
| CC1CCN(c2ccc(=O)n(CC(=O)NCCc3ccccc3)n2)CC1 | 5.19% |
| CN1CCN(C(=O)c2cc3sccc3n2Cc2ccc(Cl)cc2)CC1 | -5.06% |
| CC(=O)N1CCN(CCNC(=O)c2nc3ccccc3c(=O)[nH]2)CC1 | -7.43% |
| CC1CC(=O)c2cc(C(=O)N3CCc4ccccc4C3)c(=O)[nH]c2C1 (stereo not given) | -2.25% |
| Cc1n[nH]c2nc(-c3cccc(Cl)c3)cc(C(=O)O)c12 | 9.1% |
| CN1CCN(C(=O)c2cc3sccc3n2Cc2ccccc2Cl)CC1 | -6.69% |
| Cc1nn(C)cc1C1CC(=O)Nc2c1cnn2C(C)(C)C (stereo not given) | -4.68% |
| O=C(CC1CC1)N1CCC2(CC1)CN(CCn1cccn1)C(=O)CO2 | -4.82% |
| O=S(=O)(C1CC1)N1CCc2ncc(Cn3cncn3)n2CC1 | -3.06% |
| CN(C)Cc1nn(C)c2c1CN(C(=O)Nc1cccc(F)c1)C2 | -2.91% |
| CN(C)Cc1nn(C)c2c1CN(C(=O)Nc1ccc(F)cc1)C2 | -3.55% |

| SMILES | cytotoxicity at 70.5 h |
| --- | --- |
| NC(=O)N1CC[C@H]2CO[C@H](CNC(=O)c3ccnnc3)[C@H]2C1 | -0.828% |
| O=C1[C@@H]2CCN(CC3CCOCC3)C[C@@H]2OCCN1c1ccccc1 | 1.16% |
| O=C(c1ncn2c1CNS(=O)(=O)c1ccccc1-2)N1CCCCC1 | -2.38% |
| CCN1CC[C@]2(CN(C(=O)[C@H]3CCCO3)C[C@H]2c2ccccc2)C1=O | -1.85% |
| CC(C)c1nc(-c2cc(C(=O)NCCCO)c3ccccn23)cs1 | -3.65% |
| N#Cc1cccc(CN2CCO[C@@H]3CNC[C@@H]32)c1 | -1.26% |
| CCn1ncc2c1CN(C(=O)c1ccc3c(c1)OCO3)CC2COC (stereo not given) | -1.24% |
| CN(C)CCOCc1nnc2n1CCN(c1cnccn1)CC2 | 12.4% |
| CC(C)c1nc(-c2cc(C(=O)O)c3ccccn23)cs1 | 10.6% |
| CCS(=O)(=O)N1Cc2c(Cn3ccnc3)nn(C)c2C1 | -2.09% |
| O=C(NC1CC1)N1CCOC2(CCCN(c3cccc(F)c3)C2)C1 (stereo not given) | -3.8% |
| N#Cc1cccc(N2CCCC3(CN(C(=O)[C@H]4CCCO4)CCO3)C2)c1 (stereo not given in full) | -0.958% |
| CCN(CC)Cc1nc2c(o1)CN(C(=O)c1ccc3ncccc3c1)C2 | -4.56% |
| CCC(C)Nc1ccc2c(c1)C1(CCOCC1)C(=O)N2c1ccccc1 (stereo not given) | -7.71% |
| COc1cccc(CC(=O)N2CCc3nc(C(N)=O)sc3CC2)c1 | -8.31% |
| N#Cc1cccc(N2CCCC3(CN(C(=O)c4ccc[nH]4)CCO3)C2)c1 (stereo not given) | -5.89% |
| CCc1cnc(N2C[C@H]3CN(Cc4ccc(OC)cc4)C(=O)[C@H]3C2)nc1 | -2.79% |
| N#Cc1cccc(N2CCOCC3(CCCN(C(=O)NC4CC4)C3)C2)c1 (stereo not given) | -6.43% |
| COCCN1C(=O)C2(CCC(C(=O)Nc3ccccn3)CC2)N=C1C (stereo not given) | -11.2% |
| Cn1ccnc1C(=O)NCc1cc(=O)n2c(n1)CN(CC1CC1)CCC2 | -4.68% |
| CN1C(=O)CC2(CCN(Cc3cnn(C)c3)CC2)c2ccccc21 | -2.77% |
| CNC(=O)[C@@H]1COC[C@H]2CN(C(=O)c3ccc(OC)cc3)C[C@H]21 | -2.56% |

| SMILES | cytotoxicity at 70.5 h |
| --- | --- |
| Cn1cc(CN2C[C@@H](N3CCCC3=O)[C@H]3OCCC[C@H]32)cn1 | -3.55% |
| CNC(=O)[C@@H]1COC[C@H]2CN(C(=O)c3cccc(OC)c3)C[C@H]21 | 9.55% |
| Cn1cc(CN2CCC3(CC2)CC(=O)Nc2ccccc23)cn1 | -1.78% |
| c1cnc(N2CC[C@@H]3[C@@H]2CCN3Cc2cccs2)nc1 | -4.98% |
| Cc1cccc(CN2C[C@@H]3OCCN(C)[C@@H]3C2)n1 | -11.9% |
| CCS(=O)(=O)N1CCc2ncnc(OC)c2CC1 | -5.9% |
| COc1ncccc1CN1C[C@@H]2COC[C@]2(CNC(=O)c2ccno2)C1 | -15.5% |
| c1ccc(CN2CCOC3CNCC[C@H]32)cc1 (stereo not given in full) | 13.7% |
| CCOCC1CN(C(=O)c2cc(C)oc2C)Cc2c1cnn2C (stereo not given) | -0.121% |
| CC(C)NC(=O)[C@@H]1CN(Cc2ccc3c(c2)OCO3)C[C@H]2OCC[C@H]21 | -2.81% |
| Cn1nc(CNC(=O)CC#N)c2c1CN(CC1CC1)CC2 | -3.91% |
| Cc1ccccc1N1CC2(CCCCN2CC2CC2)CC1=O (stereo not given) | -3.78% |
| Cc1cnc(N2CCOC3(CCCN(C)C3)C2)nc1 (stereo not given) | -10.1% |
| COc1cccc(CN2CCc3nc(C(N)=O)sc3CC2)c1 | -7.05% |
| O=S(=O)(C1CC1)N1CCC2(CN(c3ccccn3)C2)C1 | -7.95% |
| CCS(=O)(=O)N1CCC2(CN(c3cccc(C)n3)C2)C1 | -4.08% |
| CC(C)C(=O)N1CCC2(CCN2CC2CC2)C1 (stereo not given) | -4.62% |
| CC(C)C(=O)N1CCC2(CN(CC3CCCC3)C2)C1 | -5.09% |
| Cc1ccc(CN2C[C@@H]3CN(c4ncc(F)cn4)C[C@@H]3C2)cc1 | -1.01% |
| c1ccc(CN2Cc3[nH]nc(COCC4CC4)c3C2)nc1 | -4.63% |
| CN1CCc2c(c(COc3cncnc3)nn2CC2CC2)C1 | 5.89% |
| CCc1cnc(N2CCC3(CC(=O)N(Cc4csc(C)n4)C3)C2)nc1 (stereo not given) | -12% |

| SMILES | cytotoxicity at 70.5 h |
| --- | --- |
| CCCC(=O)N1CCOC2(COCCN(CC(=O)NC)C2)C1 (stereo not given) | -10.5% |
| CC(C)CN1CC[C@H]2OCC[C@@H](C(=O)N3CCCO3)[C@@H]2C1 | -18.2% |
| CNC(=O)c1cc2c(nc1NCC1CC1)CCN(S(C)(=O)=O)CC2 | -23.3% |
| Cn1cc(CN2CCn3cc(Cn4cccn4)nc3C2)cn1 | 44.1% |
| O=C([C@@H]1CCO[C@@H]2CCN(CC3CCOCC3)C[C@H]21)N1CCCO1 | 46.7% |
| Cc1ccc(CN2CC[C@H]3OCC[C@@H](C(=O)N4CCCCO4)[C@@H]3C2)o1 | 47.1% |
| COCC(=O)N1CCCC2(CCN(Cc3cccc(C)n3)C2=O)C1 (stereo not given) | -0.526% |
| COCCN1CCOCC12CCN(Cc1ccn(C)n1)CC2 | -5.01% |
| Cc1nc(Cn2c3c(ccc2=O)CCN(CC2CCC2)CC3)cs1 | -9.15% |
| COCCN1CCc2ccc(=O)n(Cc3csc(C)n3)c2CC1 | -6.35% |
| CCn1cc2c(n1)C(COC)CN(c1ccc(C)nn1)C2 (stereo not given) | -7.13% |
| c1cnc(N2CCC3(CC2)CC(NCC2CC2)c2ccccc23)nc1 (stereo not given) | 11.4% |
| Fc1cnc(N2C[C@H]3CN(Cc4cccc(F)c4)C[C@H]3C2)nc1 | -13.6% |
| c1ccc(CNCC2Cn3nnc(-c4ccncc4)c3CO2)nc1 (stereo not given) | -4.04% |
| c1csc(CN2Cc3[nH]nc(COCC4CC4)c3C2)c1 | -8.6% |
| Cc1nc(CN2CC[C@H]3[C@H]2CCN3c2nncs2)cs1 | -3.7% |
| CNC(=O)[C@H]1C[C@@H]2CN(Cc3cccnc3OC)C[C@@H]2N1C(C)C | -7.89% |
| CN(C)CCN1CCCC12CCCN(Cc1ccco1)C2 (stereo not given) | 7.41% |
| COc1ncccc1CN1CC[C@]2(C[C@@H](OCc3ccccn3)CO2)C1 | -13.8% |
| c1cc(CN2CCOCC3(C2)CN(Cc2nccs2)CCO3)ccn1 (stereo not given) | 17.5% |
| CN(C)CCN1CCOCC2(C1)CN(Cc1nccs1)CCO2 (stereo not given) | 16.3% |
| COc1ccccc1CCNC(=O)C1CCC(Cn2cnnn2)CC1 (stereo not given) | -18.1% |
